One substance from paper PMC7215238 (Bioorganic & medicinal chemistry letters, 2020) can be followed below.

Common to all, as to assay type: cell-based
Assay [1] has as its system E.coli ATCC 25922. Description: MIC by broth microdilution, E. coli ATCC 25922. Particulars: cation-adjusted Mueller-Hinton broth, CLSI guidelines. A general note: In broth dilution the organism is exposed to a series of concentrations in liquid medium.
Assay [2] relates to E.coli IHMA 940398. Description: MIC by broth microdilution, E. coli IHMA 940398. Particulars: cation-adjusted Mueller-Hinton broth, CLSI guidelines, clinical strain with reduced susceptibility to PMB.
In assay [3] the test system is K.pneumoniae ATCC 4352. The assay is described as follows: MIC by broth microdilution, K. pneumoniae ATCC 4352. Particulars: cation-adjusted Mueller-Hinton broth, CLSI guidelines.
The subject of assay [4] is K.pneumoniae IHMA 652780. The assay is described as follows: MIC by broth microdilution, K. pneumoniae IHMA 652780. Particulars: cation-adjusted Mueller-Hinton broth, CLSI guidelines, clinical strain with reduced susceptibility to PMB.
In assay [5] the test system is P.aeruginosa ATCC 27853. Description: MIC by broth microdilution, P. aeruginosa ATCC 27853. The note with it: cation-adjusted Mueller-Hinton broth, CLSI guidelines.
In assay [6] the test system is P.aeruginosa IHMA 517175. The assay is described as follows: MIC by broth microdilution, P. aeruginosa IHMA 517175. The note with it: cation-adjusted Mueller-Hinton broth, CLSI guidelines, clinical strain with reduced susceptibility to PMB.
Assay [7] relates to A.baumannii NCTC 13424. The assay is described as follows: MIC by broth microdilution, A. baumannii NCTC 13424. The note with it: cation-adjusted Mueller-Hinton broth, CLSI guidelines.
Assay [8] has as its system A.baumannii IHMA 863866. The assay is described as follows: MIC by broth microdilution, A. baumannii IHMA 863866. Particulars: cation-adjusted Mueller-Hinton broth, CLSI guidelines, clinical strain with reduced susceptibility to PMB.

As for Polymyxin B [Compound 1], in assay [1], the “MIC E.coli ATCC 25922” value came out at 0.25 mg/L. Also, the “MIC E.coli IHMA 940398” value in assay [2] was found to be 16 mg/L. Also, the “MIC K.pneumoniae ATCC 4352” value in assay [3] was found to be 0.125 mg/L. In addition, in assay [4], the “MIC K.pneumoniae IHMA 652780” value worked out at 4.0 mg/L. Besides, the “MIC P.aeruginosa ATCC 27853” value in assay [5] is 0.5 mg/L. Moreover, the “MIC P.aeruginosa IHMA 517175” value in assay [6] was 8.0 mg/L. Further, in assay [7], the “MIC A.baumannii NCTC 13424” value came out at 0.25 mg/L. In addition, the “MIC A.baumannii IHMA 863866” value in assay [8] came out at 32 mg/L.
